Reference: PubChem BioAssay AID270 (DTP/NCI, 2004)
Where “and” joins values, the source holds several entries; their conditions need not be identical. Equal entries are not always repeated. Results filed as inconclusive are left out.

System: BDF1 mice, s.c. Lewis lung carcinoma, T/C %
Test: NCI In Vivo Anticancer Drug Screen. Data for tumor model Lewis Lung Carcinoma (subcutaneous) in B6D2F1 (BDF1) mice
Procedure, shortened: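 The value reflects a ratio in which the treated cohort's survival time or tumour size is compared against mice receiving only vehicle.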

[1] = endpoint: median survival time, dose: 0.5 mg/kg/injection, schedule: Q01DX009 (ip), vehicle: Klucel (hydroxypropylcellulose) (HPC), higher = longer survival
[2] = endpoint: median survival time, dose: 1.0 mg/kg/injection, schedule: Q01DX009 (ip), vehicle: Klucel (hydroxypropylcellulose) (HPC), higher = longer survival
[3] = endpoint: median survival time, dose: 2.0 mg/kg/injection, schedule: Q01DX009 (ip), vehicle: Klucel (hydroxypropylcellulose) (HPC), higher = longer survival
[4] = endpoint: median survival time, dose: 4.0 mg/kg/injection, schedule: Q01DX009 (ip), vehicle: Klucel (hydroxypropylcellulose) (HPC), higher = longer survival
[5] = endpoint: mean tumor weight, dose: 500.0 mg/kg/injection, schedule: Q01DX011 (ip), vehicle: saline, higher = larger tumour
[6] = endpoint: mean tumor weight, dose: 200.0 mg/kg/injection, schedule: Q01DX011 (ip), vehicle: other, higher = larger tumour
[7] = endpoint: median survival time, dose: 25.0 mg/kg/injection, schedule: Q01DX009 (ip), vehicle: Klucel (hydroxypropylcellulose) (HPC), higher = longer survival
[8] = endpoint: median survival time, dose: 50.0 mg/kg/injection, schedule: Q01DX009 (ip), vehicle: Klucel (hydroxypropylcellulose) (HPC), higher = longer survival
[9] = endpoint: median survival time, dose: 100.0 mg/kg/injection, schedule: Q01DX009 (ip), vehicle: Klucel (hydroxypropylcellulose) (HPC), higher = longer survival
[10] = endpoint: mean tumor weight, dose: 50.0 mg/kg/injection, schedule: Q01DX011 (ip), vehicle: other, higher = larger tumour

## Cc1c(N)nc(C(CC(N)=O)NCC(N)C(N)=O)nc1C(=O)NC(C(=O)NC(C)C(O)C(C)C(=O)NC(C(=O)NCCc1nc(-c2nc(C(=O)NCCC[S+](C)C)cs2)cs1)C(C)O)C(OC1OC(CO)C(O)C(O)C1OC1OC(CO)C(O)C(OC(N)=O)C1O)c1cnc[nH]1 (stereo not given)
[1]
  T/C: 116 % of control
[2]
  T/C: 121 % of control
[3]
  T/C: 121 % of control
[4]
  T/C: 121 % of control

## O=C(NC(Cc1ccccc1)C(=O)CCl)OCc1ccccc1 (stereo not given)
endpoint: median survival time, dose: 3.12 mg/kg/injection, schedule: Q01DX009 (ip), vehicle: saline with Tween-80, higher = longer survival
  T/C: 107 % of control
endpoint: median survival time, dose: 6.25 mg/kg/injection, schedule: Q01DX009 (ip), vehicle: saline with Tween-80, higher = longer survival
  T/C: 87 % of control
endpoint: median survival time, dose: 12.5 mg/kg/injection, schedule: Q01DX009 (ip), vehicle: saline with Tween-80, higher = longer survival
  T/C: 94 % of control

## COc1ccc(-c2cc(=O)c3c(O)cc(OC)cc3o2)cc1
endpoint: mean tumor weight, dose: 220.0 mg/kg/injection, schedule: Q01DX011 (ip), vehicle: saline, higher = larger tumour
  T/C: 84 % of control
endpoint: mean tumor weight, dose: 330.0 mg/kg/injection, schedule: Q01DX011 (ip), vehicle: saline, higher = larger tumour
  T/C: 71 % of control and 89 % of control
[5]
  T/C: 48 % of control and 60 % of control

## O=C1C2C3CCC(O3)C2C(=O)N1c1nccs1 (stereo not given)
endpoint: mean tumor weight, dose: 62.5 mg/kg/injection, schedule: Q01DX011 (ip), vehicle: carboxymethylcellulose (CMC), higher = larger tumour
  T/C: 75 % of control
endpoint: mean tumor weight, dose: 125.0 mg/kg/injection, schedule: Q01DX011 (ip), vehicle: carboxymethylcellulose (CMC), higher = larger tumour
  T/C: 71 % of control

## CCC1=C(c2cc(Cl)c3ccccc3c2OCC(=O)O)OC(CC)(C(=O)c2cc(Cl)c3ccccc3c2OCC(=O)O)CC1 (stereo not given)
endpoint: mean tumor weight, dose: 2.3 mg/kg/injection, schedule: Q01DX011 (ip), vehicle: carboxymethylcellulose (CMC), higher = larger tumour
  T/C: 82 % of control
endpoint: mean tumor weight, dose: 3.5 mg/kg/injection, schedule: Q01DX011 (ip), vehicle: carboxymethylcellulose (CMC), higher = larger tumour
  T/C: 76 % of control

## N[C@H](C(=O)O)[C@@H]1CC(Cl)=NO1
endpoint: median survival time, dose: 2.5 mg/kg/injection, schedule: Q01DX005 (ip), vehicle: saline, higher = longer survival
  T/C: 92 % of control
endpoint: median survival time, dose: 5.0 mg/kg/injection, schedule: Q01DX005 (ip), vehicle: saline, higher = longer survival
  T/C: 67 % of control
endpoint: median survival time, dose: 10.0 mg/kg/injection, schedule: Q01DX005 (ip), vehicle: saline, higher = longer survival
  T/C: 111 % of control
endpoint: median survival time, dose: 20.0 mg/kg/injection, schedule: Q01DX005 (ip), vehicle: saline, higher = longer survival
  T/C: 62 % of control
endpoint: median survival time, dose: 25.9 mg/kg/injection, schedule: Q04DX002 (ip), vehicle: saline, higher = longer survival
  T/C: 114 % of control and 121 % of control
endpoint: median survival time, dose: 43.2 mg/kg/injection, schedule: Q04DX002 (ip), vehicle: saline, higher = longer survival
  T/C: 111 % of control and 112 % of control
endpoint: median survival time, dose: 72.0 mg/kg/injection, schedule: Q04DX002 (ip), vehicle: saline, higher = longer survival
  T/C: 106 % of control and 107 % of control
endpoint: median survival time, dose: 200.0 mg/kg/injection, schedule: Q04DX002 (ip), vehicle: saline, higher = longer survival
  T/C: 100 % of control and 102 % of control
endpoint: median survival time, dose: 2.5 ml/mouse/injection, schedule: Q01DX005 (ip), vehicle: saline, higher = longer survival
  T/C: 92 % of control
endpoint: median survival time, dose: 5.0 ml/mouse/injection, schedule: Q01DX005 (ip), vehicle: saline, higher = longer survival
  T/C: 68 % of control
endpoint: median survival time, dose: 10.0 ml/mouse/injection, schedule: Q01DX005 (ip), vehicle: saline, higher = longer survival
  T/C: 108 % of control

## COc1ccc(-c2oc3ccc(C)cc3c(=O)c2O)cc1
endpoint: mean tumor weight, dose: 1.9 mg/kg/injection, schedule: Q01DX011 (ip), vehicle: saline, higher = larger tumour
  T/C: 91 % of control
endpoint: mean tumor weight, dose: 3.9 mg/kg/injection, schedule: Q01DX011 (ip), vehicle: saline, higher = larger tumour
  T/C: 100 % of control
endpoint: mean tumor weight, dose: 7.8 mg/kg/injection, schedule: Q01DX011 (ip), vehicle: saline, higher = larger tumour
  T/C: 80 % of control
endpoint: mean tumor weight, dose: 15.6 mg/kg/injection, schedule: Q01DX010 (ip), vehicle: saline, higher = larger tumour
  T/C: 71 % of control
endpoint: mean tumor weight, dose: 15.6 mg/kg/injection, schedule: Q01DX011 (ip), vehicle: saline, higher = larger tumour
  T/C: 67 % of control
endpoint: mean tumor weight, dose: 31.3 mg/kg/injection, schedule: Q01DX010 (ip), vehicle: saline, higher = larger tumour
  T/C: 82 % of control
endpoint: mean tumor weight, dose: 62.5 mg/kg/injection, schedule: Q01DX010 (ip), vehicle: saline, higher = larger tumour
  T/C: 81 % of control
endpoint: mean tumor weight, dose: 125.0 mg/kg/injection, schedule: Q01DX010 (ip), vehicle: saline, higher = larger tumour
  T/C: 84 % of control

## O=C(O)CSC1(SCC(=O)O)CCCCC1
endpoint: mean tumor weight, dose: 133.0 mg/kg/injection, schedule: Q01DX011 (ip), vehicle: other, higher = larger tumour
  T/C: 75 % of control
[6]
  T/C: 77 % of control
endpoint: mean tumor weight, dose: 300.0 mg/kg/injection, schedule: Q01DX011 (ip), vehicle: other, higher = larger tumour
  T/C: 104 % of control
endpoint: mean tumor weight, dose: 450.0 mg/kg/injection, schedule: Q01DX011 (ip), vehicle: other, higher = larger tumour
  T/C: 86 % of control

## CN(CC(=O)O)C(=N)N
endpoint: mean tumor weight, dose: 250.0 mg/kg/injection, schedule: Q01DX011 (ip), vehicle: saline, higher = larger tumour
  T/C: 57 % of control
[5]
  T/C: 53 % of control
endpoint: mean tumor weight, dose: 1000.0 mg/kg/injection, schedule: Q01DX011 (ip), vehicle: saline, higher = larger tumour
  T/C: 67 % of control

## COc1ccc(-c2cc(=O)c3c(O)c(OC)c(OC)c(OC)c3o2)cc1
endpoint: mean tumor weight, dose: 12.5 mg/kg/injection, schedule: Q01DX011 (ip), vehicle: saline, higher = larger tumour
  T/C: 95 % of control
endpoint: mean tumor weight, dose: 25.0 mg/kg/injection, schedule: Q01DX011 (ip), vehicle: saline, higher = larger tumour
  T/C: 100 % of control
endpoint: mean tumor weight, dose: 50.0 mg/kg/injection, schedule: Q01DX011 (sc), vehicle: steriod suspending solution, higher = larger tumour
  T/C: 63 % of control
endpoint: mean tumor weight, dose: 100.0 mg/kg/injection, schedule: Q01DX011 (sc), vehicle: steriod suspending solution, higher = larger tumour
  T/C: 90 % of control

## CC1(C)N=C(N)N=C(N)N1c1cccc(CC(=O)Nc2ccc(S(=O)(=O)F)cc2)c1
[7]
  T/C: 100 % of control
[8]
  T/C: 95 % of control
[9]
  T/C: 98 % of control
endpoint: median survival time, dose: 150.0 mg/kg/injection, schedule: Q01DX009 (ip), vehicle: Klucel (hydroxypropylcellulose) (HPC), higher = longer survival
  T/C: 94 % of control

## Cc1cc(O)c(C(C)C)cc1S(=O)(=O)O (tested in a mixture with another compound)
endpoint: mean tumor weight, dose: 25.0 mg/kg/injection, schedule: Q01DX011 (ip), vehicle: other, higher = larger tumour
  T/C: 95 % of control
[10]
  T/C: 105 % of control
endpoint: mean tumor weight, dose: 100.0 mg/kg/injection, schedule: Q01DX011 (ip), vehicle: other, higher = larger tumour
  T/C: 114 % of control
[6]
  T/C: 98 % of control

## CCCCCC/C=C/C#CCCCCCCCC(=O)O
endpoint: median survival time, dose: 18.75 mg/kg/injection, schedule: Q01DX009 (ip), vehicle: Klucel (hydroxypropylcellulose) (HPC), higher = longer survival
  T/C: 97 % of control
endpoint: median survival time, dose: 37.5 mg/kg/injection, schedule: Q01DX009 (ip), vehicle: Klucel (hydroxypropylcellulose) (HPC), higher = longer survival
  T/C: 90 % of control and 91 % of control
endpoint: median survival time, dose: 75.0 mg/kg/injection, schedule: Q01DX009 (ip), vehicle: Klucel (hydroxypropylcellulose) (HPC), higher = longer survival
  T/C: 102 % of control and 111 % of control

## O=P(NC12CC3CC(CC(C3)C1)C2)(N1CC1)N1CC1
endpoint: median survival time, dose: 0.25 mg/kg/injection, schedule: Q01DX009 (ip), vehicle: Klucel (hydroxypropylcellulose) (HPC), higher = longer survival
  T/C: 86 % of control
[1]
  T/C: 117 % of control
[2]
  T/C: 92 % of control
[3]
  T/C: 104 % of control
[4]
  T/C: 101 % of control

## CC(=O)OC/C=C(C)/C=C/C=C(C)/C=C/C1=C(C)CCCC1(C)C
endpoint: median survival time, dose: 200.0 mg/kg/injection, schedule: Q01DX005 (ip), vehicle: saline with Tween-80, higher = longer survival
  T/C: 100 % of control

## CC1(C)N=C(N)N=C(N)N1c1cccc(Br)c1
[10]
  T/C: 16 % of control

## CCCCn1cnc2c(SC)nc(N)nc21
endpoint: mean tumor weight, dose: 30.0 mg/kg/injection, schedule: Q01DX011 (ip), vehicle: other, higher = larger tumour
  T/C: 79 % of control
endpoint: mean tumor weight, dose: 60.0 mg/kg/injection, schedule: Q01DX011 (ip), vehicle: other, higher = larger tumour
  T/C: 103 % of control
endpoint: mean tumor weight, dose: 120.0 mg/kg/injection, schedule: Q01DX011 (ip), vehicle: other, higher = larger tumour
  T/C: 124 % of control

## C=C1C(=O)OC2CC(C)C3(O)CCC(C)(CC(OC(=O)C(C)C)C12)O3 (stereo not given)
[8]
  T/C: 92 % of control
[9]
  T/C: 106 % of control

## C=C(C)C(=O)OCCN(C)C (tested in a mixture with another compound)
endpoint: median survival time, dose: 50.0 mg/kg/injection, schedule: Q01DX009 (ip), vehicle: other, higher = longer survival
  T/C: 102 % of control
endpoint: median survival time, dose: 100.0 mg/kg/injection, schedule: Q01DX009 (ip), vehicle: other, higher = longer survival
  T/C: 103 % of control
endpoint: median survival time, dose: 200.0 mg/kg/injection, schedule: Q01DX009 (ip), vehicle: other, higher = longer survival
  T/C: 108 % of control
endpoint: median survival time, dose: 400.0 mg/kg/injection, schedule: Q01DX009 (ip), vehicle: other, higher = longer survival
  T/C: 102 % of control

## O=C1N(Cl)C(=O)C(c2ccc(Cl)cc2)(c2ccc(Cl)cc2)N1Cl
endpoint: mean tumor weight, dose: 17.0 mg/kg/injection, schedule: Q01DX011 (ip), vehicle: other, higher = larger tumour
  T/C: 84 % of control
endpoint: mean tumor weight, dose: 33.0 mg/kg/injection, schedule: Q01DX011 (ip), vehicle: other, higher = larger tumour
  T/C: 68 % of control
[10]
  T/C: 23 % of control
endpoint: mean tumor weight, dose: 75.0 mg/kg/injection, schedule: Q01DX011 (ip), vehicle: other, higher = larger tumour
  T/C: 25 % of control
endpoint: mean tumor weight, dose: 112.0 mg/kg/injection, schedule: Q01DX011 (ip), vehicle: other, higher = larger tumour
  T/C: 36 % of control
endpoint: mean tumor weight, dose: 224.0 mg/kg/injection, schedule: Q01DX011 (ip), vehicle: other, higher = larger tumour
  T/C: 52 % of control
endpoint: median survival time, dose: 12.5 mg/kg/injection, schedule: Q01DX009 (ip), vehicle: Klucel (hydroxypropylcellulose) (HPC), higher = longer survival
  T/C: 95 % of control
[7]
  T/C: 87 % of control
[8]
  T/C: 101 % of control
